Assay results: patent US12419857B2, “Oral topiramate suspension formulations with extended shelf stability and enhanced bioavailability” (Rosemont Pharmaceuticals Limited, priority 2018, dated 2025)
Converted amounts (≈) assume the structure as drawn. Where two headings read alike, the source gives them in different places.

Experiments:
[1] = Solubility of topiramate in water and non-aqueous reagents; assay type: physicochemical; conditions: for solubility: water
Source text: The present application discloses the first example of an aqueous suspension of topiramate with extended physicochemical stability and therapeutic bioavailability equivalent to that of commercially approved solid dose formulations. […] See, Physician's Desk Reference, 56th ed., pp. 2590-2595 (2002). Topiramate may be produced according to the processes disclosed in U.S. Pat. Nos. 4,513,006 and 5,387,700, the entire contents of which are herein incorporated by reference. Topiramate is sold in the United States under the trade name TOPAMAX® (Ortho-McNeil Pharmaceutical, Inc., Raritan, N.J., U.S.A). TOPAMAX® has been approved for use as an antiepileptic agent as an adjuvant therapy for patients with partial onset seizures, or primary generalized tonic-clonic seizures. See generally, Physician's Desk Reference, 56th ed., 2590-2595 (2002); see also, U.S. Pat. No. 4,513,006.
For drugs with low solubility and/or bioavailability at physiological pH and temperature, efforts to develop suspension formulations are often met with varying rates of success due to restrictive physiochemical parameters of the API and/or excipients. For example, while simply increasing the volume of diluent for low-solubility drugs may improve solubility, the large volume of diluent is often prohibitive from a patient perspective.
From a purely chemical perspective, topiramate is highly sensitive to heat (e.g., room temperature) and humidity (e.g., aqueous environment of liquid formulations). For example, abandoned U.S. Pat. App. No. 2006/0270611 discloses that topiramate is highly sensitive to hydrolysis in an aqueous medium and that any conventional aqueous oral solution would have a very limited shelf life. The chemical instability of topiramate is so well known, that pharmacists routinely monitor topiramate degradation by a change in physical appearance (e.g., tablet color changing from white to brown) and by an emergence of chemical breakdown byproducts (e.g., formation of sulfamate and sulphate ions and organic degradation compounds readily detected by HPLC). […]

[2] = acetone, chloroform, dimethylsulfoxide, ethanol; cited from earlier work
[3] = Dissolution testing (paddles 58 RPM) at three pH levels vs TOPAMAX 200 mg Tablets; assay type: physicochemical; conditions: once the suspension matrix has degraded
Procedure: Two issues were observed during the dissolution testing of the oral topiramate suspension: (i) the suspension produces very poor inter-vessel reproducibility with very large error values up until near dissolution completion and (ii) when comparing the reference tablet formulation with the suspensions very poor comparison is seen as the tablets tend to complete dissolution at a much faster rate. It was determined that both of these issues are caused by the physiochemical characteristics of the topiramate suspension vehicle and the release of the active ingredient from the suspension matrix. Once the suspension matrix is broken down, the topiramate becomes readily bioavailable. […] Changes in the physical nature of the product can also be detected with this novel testing approach.
Process validation batches were manufactured using the final production equipment and facility to cGMP and compared to a reference product (TOPAMAX® 200 mg Tablets) using dissolution (paddles 58 RPM) at three pH levels (i.e., 1.2, 4.5 and 6.8). FIG. 7. […] Thus, data support the claim that the disclosed 10 mg/ml and 20 mg/ml oral liquid topiramate suspension products are bioequivalent to the reference product TOPAMAX® 200 mg tablets (Janssen Cilag, Ltd.).

CC1(C)O[C@@H]2[C@@H](CO[C@@]3(COS(N)(=O)=O)OC(C)(C)O[C@@H]23)O1 [topiramate, 2,3:4,5-Bis-O-(1-methylethylidene)- -D-fructopyranose sulfamate]
solubility ([1]; purified water, 25 °C, 25 degrees Celsius, read-out: observed solubility in purified water): 8300 µg/mL (≈ 24.5 mM) | pH of maximum aqueous solubility ([1]; strongly alkaline solutions): ~9.5 pH | solubility ([1]; 5 °C, 5 degrees Celsius, read-out: observed solubility in water): 6400 µg/mL (≈ 18.9 mM) | solubility in non-aqueous reagents [2]: freely soluble | BCS class [3]: BCS Class I or III
